Measured values as given in patent US6814972B2, “Composition for prevention and/or treatment of vascular diseases, comprising propionyl L-carnitine and coenzyme Q10” (priority 2000, dated 2004).
“Also recorded” adds a separate entry of the source.

How the values were obtained:
[1] = system: vascular thrombosis of the rat tail induced by K-carrageenin and endothelin-1; assay: Experimental thrombotic vascular disease test (K-carrageenin + endothelin-1, rat tail); type: in vivo; settings: for % inhibition of thrombosis after 2 h: 2 h after K-carrageenin; for % inhibition of thrombosis after 24 h: 24 h after K-carrageenin; for protective effect against the onset or severity of the vasculopathy lesions induced (in words): summary of Tables 1 and 2
Method: The method used in these tests was that described by Bekemeier (Bekemeier H., Agents and Actions, 16:446, 1985) modified by Bertelli (Bertelli A., Drugs Exptl. Clin. Res., 19:7, 1993) which consists in injecting K-carrageenin (0.5 mg/kg carrageenin, Sigma Chemical St. Louis Mo., USA) into the dorsal artery of the rat tail and, immediately prior to the K-carrageenin injection, 500 pmol/kg of endothelin-1 (Peninsula Laboratories, Belmont Calif., USA) by intravenous injection. With this method, as early as the second hour after injection of K-carrageenin, vascular thrombosis developed which could be estimated by measuring the length of the infarcted portion of the tail, the length of the entire tail and the ratio between the two (% infarcted tail).
The phenomenon was assessed two and twenty-four hours after injection of K-carrageenin. […]

[2] = system: ischaemic area caused by occlusion of middle cerebral artery (MCA); assay: Experimental cerebral ischaemia test (endothelin-1 occlusion of middle cerebral artery); type: in vivo, rat; settings: for Extent of cerebral ischaemia due to occlusion of the MCA (% reduction in volume compared to controls): intravenous, five minutes after endothelin injection, carnitines 100 mg/kg, coenzyme Q10 50 mg/kg, evaluated three days later; for ability to reduce the extent of the ischaemia induced by occlusion of the MCA (in words): summary of Table 3
Method: With this test, the ischaemic area caused by occlusion of middle cerebral artery (MCA) was evaluated using the method described by Scharkey (Scharkey Y., Nature, 371:336, 1994), performed by injecting endothelin-1 (120 pmol in […]) in 5 minutes into anaesthetised rats with a microcannula placed stereotactically in the piriform cortex at the level of the middle cerebral artery. With this method, occlusion of the middle cerebral artery is induced and the resulting ischaemic area can be visualised three days later with transcardiac perfusion of a paraformaldehyde solution (4% in PBS). After extracting the cerebral mass, the latter was placed for twenty-four hours in a fixative containing 10% sucrose, and cryostat sections ([…]) fixed with resyl violet were examined under the optical microscope. The volume of the infarcted area was calculated according to the method described by Park (Park C. K., Ann. Neurol., 20:150, 1989).

[3] = system: papillary muscle of rabbit heart subjected to hypoxia; assay: Myocardial anti-anoxic activity test (ATP in hypoxic papillary muscle); type: in vivo; settings: for ATP concentrations, after hypoxia / ATP concentrations, before hypoxia: daily i.v. for three days (carnitines 100 mg/kg, combination 5 x 25 mg/kg, coenzyme Q10 50 mg/kg); for ATP concentrations, after hypoxia: after a 90 min anoxia period; for ATP concentrations, before hypoxia: papillary muscle under oxygen perfusion for 90 min; for preservation of ATP concentrations in papillary muscle (in words): summary of Table 4
From the text: This test was used to assess the ability of propionyl L-carnitine to protect the myocardium against the loss of ATP induced by anoxia and to preserve energy capacity even in these conditions.
An attempt was therefore made to establish whether prior treatment with propionyl L-carnitine, L-carnitine, carnitine combination or coenzyme Q10 alone or in combination with propionyl L-carnitine or with the other preparations was capable of preserving normal ATP concentrations in the hypoxic myocardium.
After three days of treatment, all the animals were sacrificed. Sections of papillary muscle measuring 1 mm in diameter and 4-5 mm in thickness were isolated. These samples of papillary muscle were perfused in a thermostatic bath with a saturated solution of 100% O2. The hypoxia was then produced by introducing 100% N2 in the bath in place of O2. The ATP concentrations in papillary muscle were measured using the method described by Strehler (Strehler B. L., Methods in Enzymology, 111, N.Y. Acad. Press, 879, 1957). The analysis was done on tissue samples maintained under oxygen perfusion for 90 min and after a 90 min anoxia period.

[4] = system: mice administered scopolamine; assay: Learning test (water maze, scopolamine-treated mice); type: in vivo, mouse; settings: for activity in the learning test (in words): summary of Table 5; for Latency period, administration (per os, 3 days): oral for three consecutive days, carnitines 300 mg/kg, coenzyme Q10 20 mg/kg; for Latency period, administration (per os, 3 days) / Latency period, administration (I.P.): scopolamine 3 mg/kg i.p.; for Latency period, administration (I.P.): single intraperitoneal dose one hour before test, carnitines 100 mg/kg, coenzyme Q10 50 mg/kg
Method: These tests were performed in mice using the water maze procedure as described by Morris (Morris R., J. Neurosci. Meth., 11:47, 1984) and modified by Lin (Lin Y., Acta Pharmacol. Sin., 19:413, 1998). The procedure consists in placing, in a maze situated in a tank containing water (80 cm×50 cm×20 cm) 10 cm deep, mice of both sexes weighing approximately 20 g each, which, after a suitable period of training in the task of finding their way back to the final platform and after selecting those that took less than 20 min to do so, were divided into various groups.
Both intraperitoneal and oral administration were carried out one hour prior to the start of the test. Half an hour before the start all the animals were administered scopolamine intraperitoneally at the dose of 3 mg/kg. As is known, scopolamine induces abnormalities of spatial orientation and prolongs latency time in finding the way to reach the platform.
After the test the latency time to reach the platform was calculated for each animal.

Sprague-Dawley male rats = assay: Toxicology test, single oral administration of high doses; type: in vivo; settings: propionyl L-carnitine 2 g/kg, coenzyme Q10 0.2 g/kg, or the same amounts in combination
From the text: Their use in combination also produces no damaging toxicological effects.

[5] = intravenous administration, carnitines 50 mg/kg (combination 5 x 10 mg/kg), coenzyme Q10 20 mg/kg
[6] = oral administration for four days prior to the test, carnitines 300 mg/kg (combination 5 x 75 mg/kg), coenzyme Q10 100 mg/kg

Row | SMILES | % inhibition of thrombosis after 2 h [1, 5] | % inhibition of thrombosis after 24 h [1, 5] | % inhibition of thrombosis after 2 h [1, 6] | % inhibition of thrombosis after 24 h [1, 6] | protective effect against the onset or severity of the vasculopathy lesions induced (in words) [1] | Extent of cerebral ischaemia due to occlusion of the MCA (% reduction in volume compared to controls) [2] | ability to reduce the extent of the ischaemia induced by occlusion of the MCA (in words) [2] | ATP concentrations, after hypoxia [3] | ATP concentrations, before hypoxia [3] | activity in the learning test (in words) [4] | preservation of ATP concentrations in papillary muscle (in words) [3] | Latency period, administration (per os, 3 days) [4] | Latency period, administration (I.P.) [4] | toxic effects or signs of intolerance (Sprague-Dawley male rats)
1 | CC(=O)O[C@H](CC(=O)[O-])C[N+](C)(C)C [Acetyl L-carnitine, acetyl L-carnitine] | 8.8 ± 0.7% | 10.6 ± 0.8% | 9.2 ± 0.8% | 11.5 ± 1.5% | ineffective | 15.8 ± 1.4% | no significant protective effect | 0.54 ± 0.075 µmol/g tissue | 1.58 ± 0.98 µmol/g tissue | only poor activity |  |  |  | 
2 | COC1=C(OC)C(=O)C(C/C=C(\C)CC/C=C(\C)CC/C=C(\C)CC/C=C(\C)CC/C=C(\C)CC/C=C(\C)CC/C=C(\C)CC/C=C(\C)CC/C=C(\C)CCC=C(C)C)=C(C)C1=O [Coenzyme Q10, coenzyme Q10] | 11.7 ± 0.9% | 14.5 ± 1.3% | 13.8 ± 1.7% | 12.5 ± 1.7% | poorly effective | 22.2 ± 2.9% |  | 0.64 ± 0.068 µmol/g tissue | 1.65 ± 0.7 µmol/g tissue |  | at least partially maintaining the ATP concentrations | 31 ± 12 s | 31 ± 18 s | 
3 | C[N+](C)(C)C[C@H](O)CC(=O)[O-] [L-carnitine] | 9.5 ± 0.4% | 11.5 ± 0.9% | 8.5 ± 0.5% | 9.2 ± 1.2% | ineffective | 10.5 ± 0.77% | no significant protective effect; also recorded: much less pronounced | 0.5 ± 0.045 µmol/g tissue | 1.55 ± 0.8 µmol/g tissue | inactive | Much more limited | 39 ± 21 s | 40 ± 20 s | 
4 | CCC(=O)O[C@H](CC(=O)[O-])C[N+](C)(C)C [Propionyl L-carnitine, propionyl L-carnitine] | 16.25 ± 0.7% | 26.45 ± 1.9% | 14.5 ± 0.7% | 30.5 ± 3.3% | protective effect | 30.3 ± 3.6% | good ability to reduce the extent of the ischaemia | 0.64 ± 0.055 µmol/g tissue | 1.58 ± 0.64 µmol/g tissue |  | at least partially maintaining the ATP concentrations | 30 ± 16 s | 32 ± 12 s | failed to reveal any toxic effects or signs of intolerance
